# Test results from patent US10206399B2, “Herbicidal composition comprising uracil compound as active ingredient” (Dongbu Farm Hannong Co., Ltd., priority 2012, dated 2019).
# Where two headings read alike, the source gives them in different places.
# Columns and labels:
# [1] = system: Aeschynomene indica; assay: whole plant or invertebrate; settings: for pest or weed control at 200 g/ha: read-out: Data (measured value) Aeschynomene indica, 200 g/ha
# From the text: (§1) X is % damage by uracil compound (a) of formula 1 at the rate of application of p kg/ha; Y is % damage by conventional herbicidal compound (b) at the rate of application of q kg/ha; and E is the expected damage caused by compounds (a) and (b) at a rate of application of p and q kg/ha.
# (§2) The expected activity for a given combination of two herbicides can be calculated using equation 1 above.
# [2] = system: Echinochloa crus; settings: for plant mortality, measured value: Echinochloa crus
# From the text: as §1, §2
# [3] = system: Abutilon theophrasti; assay: whole plant or invertebrate; settings: for pest or weed control at 200 g/ha: read-out: Data (measured value) Abutilon theophrasti, 200 g/ha
# From the text: as §1, §2
# [4] = system: Xanthium spinosum; assay: whole plant or invertebrate; settings: for pest or weed control at 200 g/ha: read-out: Data (measured value) Xanthium spinosum, 200 g/ha
# From the text: as §1, §2
# [5] = system: Digitaria sanguinalis; settings: for plant mortality, measured value: Digitaria sanguinalis
# From the text: as §1, §2
# [6] = read-out: Data (measured value) Aeschynomene indica, 25 g/ha
# [7] = read-out: Data (measured value) Aeschynomene indica, 50 g/ha
# [8] = read-out: Data (measured value) Aeschynomene indica, 100 g/ha
# [9] = read-out: plant mortality, measured value, 25 g/ha
# [10] = read-out: plant mortality, measured value, 50 g/ha
# [11] = read-out: plant mortality, measured value, 100 g/ha
# [12] = read-out: Data (measured value) Abutilon theophrasti, 25 g/ha
# [13] = read-out: Data (measured value) Abutilon theophrasti, 50 g/ha
# [14] = read-out: Data (measured value) Abutilon theophrasti, 100 g/ha
# [15] = read-out: Data (measured value) Xanthium spinosum, 25 g/ha
# [16] = read-out: Data (measured value) Xanthium spinosum, 50 g/ha
# [17] = read-out: Data (measured value) Xanthium spinosum, 100 g/ha
Compound,"pest or weed control at 25 g/ha [1, 6] [%]","pest or weed control at 50 g/ha [1, 7] [%]","pest or weed control at 100 g/ha [1, 8] [%]",Data (measured value) Echinochloa crus ([2]; 25 g/ha),Data (measured value) Echinochloa crus ([2]; 50 g/ha),Data (measured value) Echinochloa crus ([2]; 100 g/ha),"pest or weed control at 25 g/ha [3, 12] [%]","pest or weed control at 50 g/ha [3, 13] [%]","pest or weed control at 100 g/ha [3, 14] [%]","pest or weed control at 25 g/ha [4, 15] [%]","pest or weed control at 50 g/ha [4, 16] [%]","pest or weed control at 100 g/ha [4, 17] [%]",Data (measured value) Digitaria sanguinalis ([5]; 25 g/ha),Data (measured value) Digitaria sanguinalis ([5]; 50 g/ha),Data (measured value) Digitaria sanguinalis ([5]; 100 g/ha),pest or weed control at 200 g/ha [1] [%],Data (measured value) Echinochloa crus ([2]; 200 g/ha),pest or weed control at 200 g/ha [3] [%],pest or weed control at 200 g/ha [4] [%],Data (measured value) Digitaria sanguinalis ([5]; 200 g/ha),further results
CCSC(C)CC1CC(=O)C(/C(CC)=N/OC/C=C/Cl)=C(O)C1 (stereo not drawn) [Clethodim],0,0,0,11,31,65,0,0,0,0,0,0,6,19,45,,,,,,"pest or weed control at 25 g/ha [1, 9]: 0%; pest or weed control at 50 g/ha [1, 10]: 0%; pest or weed control at 100 g/ha [1, 11]: 0%; plant mortality, measured value ([2]; 25 g/ha): 11; plant mortality, measured value ([2]; 50 g/ha): 31; plant mortality, measured value ([2]; 100 g/ha): 65; pest or weed control at 25 g/ha [3, 9]: 0%; pest or weed control at 50 g/ha [3, 10]: 0%; pest or weed control at 100 g/ha [3, 11]: 0%; pest or weed control at 25 g/ha [4, 9]: 0%; pest or weed control at 50 g/ha [4, 10]: 0%; pest or weed control at 100 g/ha [4, 11]: 0%; plant mortality, measured value ([5]; 25 g/ha): 6; plant mortality, measured value ([5]; 50 g/ha): 19; plant mortality, measured value ([5]; 100 g/ha): 45"
Cc1cc(Cl)ccc1OC(C)C(=O)O (stereo not drawn) [Mecoprop],,,,,,,,,,,,,,,,8,0,14,9,0,"pest or weed control at 400 g/ha ([1]; read-out: Data (measured value) Aeschynomene indica, 400 g/ha): 24%; pest or weed control at 800 g/ha ([1]; read-out: Data (measured value) Aeschynomene indica, 800 g/ha): 55%; Data (measured value) Echinochloa crus ([2]; 400 g/ha): 0; Data (measured value) Echinochloa crus ([2]; 800 g/ha): 0; pest or weed control at 400 g/ha ([3]; read-out: Data (measured value) Abutilon theophrasti, 400 g/ha): 29%; pest or weed control at 800 g/ha ([3]; read-out: Data (measured value) Abutilon theophrasti, 800 g/ha): 64%; pest or weed control at 400 g/ha ([4]; read-out: Data (measured value) Xanthium spinosum, 400 g/ha): 19%; pest or weed control at 800 g/ha ([4]; read-out: Data (measured value) Xanthium spinosum, 800 g/ha): 45%; Data (measured value) Digitaria sanguinalis ([5]; 400 g/ha): 0; Data (measured value) Digitaria sanguinalis ([5]; 800 g/ha): 0"
CCc1cc(C)cc(CC)c1-c1c(OC(=O)C(C)(C)C)n2n(c1=O)CCOCC2 [Pinoxaden],0,,,63,,,0,,,0,,,57,,,,,,,,"pest or weed control at 6.25 g/ha ([1]; read-out: Data (measured value) Aeschynomene indica, 6.25 g/ha): 0%; pest or weed control at 12.5 g/ha ([1]; read-out: Data (measured value) Aeschynomene indica, 12.5 g/ha): 0%; Data (measured value) Echinochloa crus ([2]; 6.25 g/ha): 10; Data (measured value) Echinochloa crus ([2]; 12.5 g/ha): 29; pest or weed control at 6.25 g/ha ([3]; read-out: Data (measured value) Abutilon theophrasti, 6.25 g/ha): 0%; pest or weed control at 12.5 g/ha ([3]; read-out: Data (measured value) Abutilon theophrasti, 12.5 g/ha): 0%; pest or weed control at 6.25 g/ha ([4]; read-out: Data (measured value) Xanthium spinosum, 6.25 g/ha): 0%; pest or weed control at 12.5 g/ha ([4]; read-out: Data (measured value) Xanthium spinosum, 12.5 g/ha): 0%; Data (measured value) Digitaria sanguinalis ([5]; 6.25 g/ha): 12; Data (measured value) Digitaria sanguinalis ([5]; 12.5 g/ha): 26"
Nc1c(Cl)c(F)nc(OCC(=O)O)c1Cl [Fluroxypyr],,13,27,,0,0,,9,26,,7,23,,0,0,63,0,53,54,0,
